Patent publication US20240197724A1, “THERAPEUTIC AGENT FOR GAIT DISTURBANCE” (NIPPON SHINYAKU CO., LTD., priority 2021, published 2024)

Key:
[1] = test system: FeCl3-induced thrombus in femoral artery; test: Antithrombotic effect in rat FeCl3-induced thrombus model; assay type: in vivo; settings: male Wistar rats
Description: Methylcellulose (METOLOSE, SM-400, Shin-Etsu Chemical Co., Ltd.) was dissolved in distilled water, to prepare a 0.5 w/v% methylcellulose aqueous solution. The 0.5 w/v% methylcellulose aqueous solution was added to the compound A, to prepare a 10 mg/mL suspension of compound A in the 0.5 w/v% methylcellulose aqueous solution. • (b) Beraprost Sodium The 0.5 w/v% methylcellulose aqueous solution was added to beraprost sodium, to prepare a 1.0 mg/mL aqueous solution of beraprost sodium in the 0.5 w/v% methylcellulose aqueous solution. • (c) Cilostazol The 0.5 w/v% methylcellulose aqueous solution was added to cilostazol, to prepare a 150 or 50 mg/mL suspension of cilostazol. Urethane (Wako Pure Chemical Industries, Ltd.) was dissolved in saline (Otsuka Pharmaceutical Factory, Inc.) to prepare a solution of 0.3 g/mL. The urethane saline solution was subcutaneously administered to rats at 4 mL per 1 kg of body weight (1.2 g/kg) to anesthetize them. […] Male Wistar rats aged 9 to 10 weeks were used as rats. The abdomen of the rat was incised to expose the duodenum, and drugs were injected 2 to 3 mm downstream from the vicinity of the gastric-duodenal boundary using a 26G injection needle and syringe. The compound A and beraprost sodium were administered at a dose of 1 mL/kg, and cilostazol was administered at a dose of 2 mL/kg. The skin on the right thigh of the rat was incised to expose the femoral artery, and the vein and nerve were dissected. A parafilm was placed under the dissected femoral artery to completely separate the femoral artery, vein, and nerve. A laser Doppler blood flowmeter (ALF21, Advance) probe was placed on the femoral artery to start measuring the blood flow (mL/min/g). 60 minutes after the administration for the compound A-administered group, 30 minutes after the administration for the beraprost sodium-administered group, and 120 minutes after the administration for the cilostazol-administered group, a filter paper (2 mm×5 mm) impregnated with a 10 w/w% FeCl3 aqueous solution was placed on the femoral artery, and changes in blood flow were measured using a biometric data processing system (FLO-WB, Omega Wave Co., Ltd.) and recorded.

[2] = test system: ischemic gait disturbance caused by ligation of the iliac artery; test: Gait improvement in rat ischemic gait disturbance model (iliac artery ligation, treadmill); assay type: in vivo; settings: male Wistar rats, 3 mg/kg orally twice a day for 9 days from one day after surgery; measured 3, 7 and 10 days after surgery; p<0.01 vs control
Description: Wistar rats (male, 7 week-old) (available from CHARLES RIVER LABORATORIES JAPAN, INC.) were subjected to gait training using a treadmill (MK-680, available from Muromachi Kikai Co., Ltd.) for three consecutive days-6 days before surgery, 5 days before surgery, and 4 days before surgery. On the day before surgery, the pre-value of the walking distance was measured, the animals were divided into groups, and sham surgery or iliac artery ligation surgery described in i) below was performed. […] Walking time was measured 3 days, 7 days and 10 days after the surgery. Based on the measured walking time, the walking distance was calculated. • i) Method of Iliac Artery Ligation Surgery Rats were anesthetized by intraperitoneal administration of 50 mg/kg pentobarbital sodium (Somnopentyl®, Schering-Plough Animal Health). […] The ligation of the iliac artery was performed by the data manager and this information was not disclosed to the gait tester until the study was completed. • ii) Walking Time Measurement Method The speed of the treadmill belt was increased from 15 m/min to 35 m/min by increments of 5 m/min in each 3 minutes, and the time the rat got on the electrical stimulation plate at the rear end of the belt was recorded as the dropout time. […] After the measurement, the dropout time was recorded in the gait test record. […]

[3] = test system: gait disturbance in patient with arteriosclerosis obliterans; test: Improvement of gait disturbance in patients with arteriosclerosis obliterans (placebo-controlled, double-blind study); assay type: in vivo, human; settings: Japanese patients, 0.1 to 1.6 mg twice a day for 24 to 36 weeks
Description: As a placebo-controlled, double-blind comparative study, Japanese patients with arteriosclerosis obliterans (selected by resting ABI, or the like) received placebo or selexipag (which is compound A) at 0.1 to 1.6 mg twice a day for 24 to 36 weeks (dose adjustment period: 8 to 20 weeks, dose maintenance period: 16 weeks).

For `CC#CCC(C)[C@H](O)/C=C/[C@@H]1[C@H]2c3cccc(CCCC(=O)O)c3O[C@H]2C[C@H]1O` (mixture of isomers) [beraprost sodium], the vascular occlusion time ([1]; 0.3 mg/kg intraduodenal, 30 minutes before induction) was “not prolonged”, the “reduction in blood pressure” value ([1]; 0.3 mg/kg intraduodenal, observed over time) was 25% and the vascular occlusion time ([1]; 1 mg/kg intraduodenal, administration 30 minutes before induction, vehicle control about 12 to 15 minutes) was “about 43 minutes”.

In the case of `O=C1CCc2cc(OCCCCc3nnnn3C3CCCCC3)ccc2N1` [cilostazol], the vascular occlusion time ([1]; 150 or 50 mg/mL suspension at 2 mL/kg intraduodenal, 120 minutes before induction) is reported as “Neither dose of cilostazol prolonged the occlusion time”.

For `CC(C)N(CCCCOCC(=O)NS(C)(=O)=O)c1cnc(-c2ccccc2)c(-c2ccccc2)n1` [compound A, 2-{4-[N-(5,6-diphenylpyrazine-2-yl)-N-isopropylamino]butyloxy}-N-(methylsulfonyl) acetamide], the vascular occlusion time ([1]; 10 mg/kg intraduodenal, administration 60 minutes before induction, vehicle control about 12 to 15 minutes) was “about 22 minutes”, the “improvement of gait disturbance (walking distance, FIG. 1)” value [2] was “significantly improved gait disturbance” and the “improvement of gait disturbance (treadmill, maximum walking time, Gartner method)” value [3] was “Improvement of patient's gait disturbance was confirmed”.
